From patent US10072023B2, “Diarylethene compounds and uses thereof” (SWITCH MATERIALS, INC., priority 2011, dated 2018)
One block for each molecule: values may come before it.

Assay: Absorbance at photostationary state (PSS) under simulated sunlight or 365 nm light
Assay type: physicochemical
Parameters: λ max: unit not given here
Conditions: for Absorbance at PSS, 365 nm: 365 nm light source; for Absorbance at PSS, 365 nm / Absorbance at PSS, full / Absorbance at PSS, +UV / λ max: 2.0×10^−5 M in triglyme; for sensitivity index: ratio of PSS under 365 nm light to PSS under full spectrum light (without UV blocking film); for Absorbance at PSS, full: simulated sunlight (QSUN solar simulator), no UV blocking film; for Absorbance at PSS, +UV: simulated sunlight with UV blocking film (cutoff 370 nm); for λ max: wavelength of maximum absorbance in the visible range, ring-closed isoform
Protocol: Absorbance at a PSS for selected compounds was measured at 2.0×10^−5 M in triglyme in the absence (full) or presence (+UV) of a UV blocking film with a UV cutoff wavelength of 370 nm (10% transmission at 370 nm), using simulated sunlight (QSUN solar simulator) as a light source, or a 365 nm light source; these PSS are reported in Tables 1.5. […] “Switch” refers to the ability (yes or no) of the compound to be reversibly converted under photochromic and electrochromic conditions between a ring-open isomer and ring-closed isomer.
A sensitivity index (SI) is a ratio of the PSS under 365 nm light to the PSS under full spectrum light (without UV blocking film). SI is an indicator of the sensitivity of the compound to the composition of the incident light (a change in the ratio of UV and visible components)—photochemical ring-opening is induced by a portion of the visible light spectrum.
Photostationary State (PSS) UV/Vis spectra are obtained using an OceanOptics™ Spectrophotometer until absorption in the visible region of the spectrum stabilizes. A 2×10^−5M solution of compound in solvent is prepared, and photofaded using visible light until absorption in the visible region of the spectrum stabilizes. The sample is then irradiated with simulated sunlight (QSUN SS-150 Solar Simulator with xenon arc lamp) until the absorption spectrum stabilizes. To obtain PSS in the presence of a UV blocking film, a second sample is prepared and irradiated as described, with a UV blocking film inserted in the light path when irradiating.

SMILES: CC(C)(C)c1ccc(-c2oc3cc(O)ccc3c2C2=C(c3c(-c4ccc(C(C)(C)C)cc4)oc4cc(O)ccc34)C(F)(F)C(F)(F)C2(F)F)cc1 [S162, 3,3′-(perfluorocyclopent-1-ene-1,2-diyl)bis(2-(4-(tert-butyl)phenyl)benzofuran-6-ol)]
Absorbance at PSS, 365 nm: 0.398
sensitivity index: 3.34
Absorbance at PSS, full: 0.119
Absorbance at PSS, +UV: 0.06
λ max: 520

SMILES: FC1(F)C(c2c(-c3ccccc3)sc3ccccc23)=C(c2c(-c3ccccc3)sc3ccccc23)C(F)(F)C1(F)F [S014, 3,3′-(perfluorocyclopent-1-ene-1,2-diyl)bis(2-phenylbenzo[b]thiophene)]
Absorbance at PSS, 365 nm: 0.011
sensitivity index: 2.75
Absorbance at PSS, full: 0.004
Absorbance at PSS, +UV: 0.006
λ max: 525

SMILES: COc1ccc(-c2oc3ccc(OC)cc3c2C2=C(c3c(-c4ccc(OC)cc4)oc4ccc(OC)cc34)C(F)(F)C(F)(F)C2(F)F)cc1 [S083]
Absorbance at PSS, 365 nm: 0.167
sensitivity index: 7.26
Absorbance at PSS, full: 0.023
Absorbance at PSS, +UV: 0.008
λ max: 550

SMILES: FC1(F)C(c2cc(-c3ccccc3)sc2-c2ccccc2)=C(c2cc(-c3cccs3)sc2-c2cccs2)C(F)(F)C1(F)F [S005, 3′-(2-(2,5-diphenylthiophen-3-yl)-3,3,4,4,5,5-hexafluorocyclopent-1-en-1-yl)-2,2′:5′,2″-terthiophene]
Absorbance at PSS, 365 nm: 0.195
sensitivity index: 2.71
Absorbance at PSS, full: 0.072
Absorbance at PSS, +UV: 0.028
λ max: 618

SMILES: COc1cc(OC)cc(-c2cc(C3=C(c4cc(-c5cc(OC)cc(OC)c5)sc4-c4cc(OC)cc(OC)c4)C(F)(F)C(F)(F)C3(F)F)c(-c3cc(OC)cc(OC)c3)s2)c1 [S097, 3,3′-(perfluorocyclopent-1-ene-1,2-diyl)bis(2,5-bis(3,5-dimethoxyphenyl)thiophene)]
Absorbance at PSS, 365 nm: 0.206
sensitivity index: 2.82
Absorbance at PSS, full: 0.073
Absorbance at PSS, +UV: 0.029
λ max: 611

SMILES: CC(C)(C)c1ccc(-c2oc3cc4c(cc3c2C2=C(c3c(-c5ccc(C(C)(C)C)cc5)oc5cc6c(cc35)OCO6)C(F)(F)C(F)(F)C2(F)F)OCO4)cc1 [S163, 7,7′-(perfluorocyclopent-1-ene-1,2-diyl)bis(6-(4-(tert-butyl)phenyl)-[1,3]dioxolo[4,5-f]benzofuran)]
Absorbance at PSS, 365 nm: 0.533
sensitivity index: 2.12
Absorbance at PSS, full: 0.252
Absorbance at PSS, +UV: 0.116
λ max: 588

SMILES: COc1ccc2c(C3=C(c4c(-c5ccc(C)s5)oc5cc(OC)ccc45)C(F)(F)C(F)(F)C3(F)F)c(-c3ccc(C)s3)oc2c1 [S144, 3,3′-(perfluorocyclopent-1-ene-1,2-diyl)bis(6-methoxy-2-(5-methylthiophen-2-yl)benzofuran)]
Absorbance at PSS, 365 nm: 0.318
sensitivity index: 3.88
Absorbance at PSS, full: 0.082
Absorbance at PSS, +UV: 0.04
λ max: 513

SMILES: CC(C)(C)c1ccc(-c2cc(C3=C(c4cc(-c5ccc(C(C)(C)C)s5)sc4-c4ccc(O[Si](O[Si](C)(C)C)(O[Si](C)(C)C)O[Si](C)(C)C)cc4)C(F)(F)C(F)(F)C3(F)F)c(-c3ccc(O[Si](O[Si](C)(C)C)(O[Si](C)(C)C)O[Si](C)(C)C)cc3)s2)s1 [S118]
Absorbance at PSS, 365 nm: 0.34
sensitivity index: 1.52
Absorbance at PSS, full: 0.223
Absorbance at PSS, +UV: 0.124
λ max: 648

SMILES: O=C(O)c1ccc(-c2cc(C3=C(c4cc(-c5ccc(C(=O)O)s5)sc4-c4ccc(C(=O)O)s4)C(F)(F)C(F)(F)C3(F)F)c(-c3ccc(C(=O)O)s3)s2)s1 [S024]
Absorbance at PSS, 365 nm: 0.102
sensitivity index: 5.10
Absorbance at PSS, full: 0.02
Absorbance at PSS, +UV: 0.018
λ max: 650

SMILES: COc1ccc(-c2sc(-c3cc4ccccc4s3)cc2C2=C(c3cc(-c4cc5ccccc5s4)sc3-c3ccc(OC)cc3)C(F)(F)C(F)(F)C2(F)F)cc1 [S110, 2,2′-(4,4′-(perfluorocyclopent-1-ene-1,2-diyl)bis(5-(4-methoxyphenyl)thiophene-4,2-diyl))bis(benzo[b]thiophene)]
Absorbance at PSS, 365 nm: 0.414
sensitivity index: 1.20
Absorbance at PSS, full: 0.346
Absorbance at PSS, +UV: 0.221
λ max: 653

SMILES: FC1(F)C(c2cc(-c3ccc(Cl)s3)sc2-c2ccc(Cl)s2)=C(c2cc(-c3ccc(Cl)s3)sc2-c2ccc(Cl)s2)C(F)(F)C1(F)F [S026, 3′,3″″-(perfluorocyclopent-1-ene-1,2-diyl)bis(5,5″-dichloro-2,2′:5′,2″-terthiophene)]
Absorbance at PSS, 365 nm: 0.383
sensitivity index: 1.53
Absorbance at PSS, full: 0.251
Absorbance at PSS, +UV: 0.196
λ max: 645

SMILES: COc1ccc(-c2sc(-c3ccc(/C=C/c4ccccc4)cc3)cc2C2=C(c3cc(-c4ccc(/C=C/c5ccccc5)cc4)sc3-c3ccc(OC)cc3)C(F)(F)C(F)(F)C2(F)F)cc1 [S088, (E)-3,3′-(perfluorocyclopent-1-ene-1,2-diyl)bis(2-(4-methoxyphenyl)-5-(4-((E)-styryl)phenyl)thiophene)]
Absorbance at PSS, 365 nm: 0.457
sensitivity index: 2.26
Absorbance at PSS, full: 0.202
Absorbance at PSS, +UV: 0.132
λ max: 656

SMILES: CC(C)(C)c1ccc(-c2cc(C3=C(c4cc(-c5ccc(C(C)(C)C)s5)sc4-c4cccs4)C(F)(F)C(F)(F)C3(F)F)c(-c3cccs3)s2)s1 [S170, 4,4′-(perfluorocyclopent-1-ene-1,2-diyl)bis(5′-tert-butyl-5-(thiopheyl)-2,2′-bithiophene)]
Absorbance at PSS, full: 0.287
Absorbance at PSS, +UV: 0.182
λ max: 645

SMILES: Cc1ccc(-c2ccc(-c3cc(C4=C(c5cc(-c6ccc(-c7ccc(C)s7)s6)sc5-c5ccc(C)s5)C(F)(F)C(F)(F)C4(F)F)c(-c4ccc(C)s4)s3)s2)s1 [S034, 3′,3″″′-(perfluorocyclopent-1-ene-1,2-diyl)bis(5,5″′-dimethyl-2,2′:5′,2″:5″,2″′-quaterthiophene)]
Absorbance at PSS, 365 nm: 0.468
sensitivity index: 1.73
Absorbance at PSS, full: 0.271
Absorbance at PSS, +UV: 0.246
λ max: 690

SMILES: FC1(F)C(c2nc(-c3ccccc3)sc2-c2ccccc2)=C(c2nc(-c3ccccc3)sc2-c2ccccc2)C(F)(F)C1(F)F [S035, 4,4′-(perfluorocyclopent-1-ene-1,2-diyl)bis(2,5-diphenylthiazole)]
Absorbance at PSS, 365 nm: 0.416
sensitivity index: 8.32
Absorbance at PSS, full: 0.05
Absorbance at PSS, +UV: 0.016
λ max: 540

SMILES: COc1ccc(-c2cc(C3=C(c4cc(-c5ccc(C#N)cc5)sc4-c4ccc(OC)cc4)C(F)(F)C(F)(F)C3(F)F)c(-c3ccc(C#N)cc3)s2)cc1 [S087, 4-(3-(2-(5-(4-cyanophenyl)-2-(4-methoxyphenyl)thiophen-3-yl)-3,3,4,4,5,5-hexafluorocyclopent-1-en-1-yl)-5-(4-methoxyphenyl)thiophen-2-yl)benzonitrile]
Absorbance at PSS, 365 nm: 0.209
sensitivity index: 1.92
Absorbance at PSS, full: 0.109
Absorbance at PSS, +UV: 0.055
λ max: 628

SMILES: CC(C)(C)c1ccc(-c2cc(C3=C(c4cc(-c5ccc(C(C)(C)C)s5)sc4-c4ccc(OCCCO)cc4)C(F)(F)C(F)(F)C3(F)F)c(-c3ccc(OCCCO)cc3)s2)s1 [S111, 3,3′-(4,4′-(4,4′-(perfluorocyclopent-1-ene-1,2-diyl)bis(5′-tert-butyl-2,2′-bithiophene-5,4-diyl))bis(4,1-phenylene)bis(oxy))dipropan-1-ol]
Absorbance at PSS, 365 nm: 0.322
sensitivity index: 1.10
Absorbance at PSS, full: 0.292
Absorbance at PSS, +UV: 0.192
λ max: 646

SMILES: C[Si](C)(C)c1ccc(-c2cc(C3=C(c4cc(-c5ccc([Si](C)(C)C)s5)sc4-c4ccc([Si](C)(C)C)s4)C(F)(F)C(F)(F)C3(F)F)c(-c3ccc([Si](C)(C)C)s3)s2)s1 [S135, 3′,3″″-(perfluorocyclopent-1-ene-1,2-diyl)bis(5,5″-bis(trimethylsilyl)-2,2′:5′,2″-terthiophene)]
Absorbance at PSS, 365 nm: 0.387
sensitivity index: 1.22
Absorbance at PSS, full: 0.318
Absorbance at PSS, +UV: 0.224
λ max: 648

SMILES: Cc1sc(-c2cc(C3=C(c4cc(-c5sc(C)c6c5OCCO6)sc4-c4sc(C)c5c4OCCO5)C(F)(F)C(F)(F)C3(F)F)c(-c3sc(C)c4c3OCCO4)s2)c2c1OCCO2 [S036]
Absorbance at PSS, 365 nm: 0.174
sensitivity index: 7.25
Absorbance at PSS, full: 0.024
Absorbance at PSS, +UV: 0.016
λ max: 665

Absorbance at PSS, 365 nm: 0.191
sensitivity index: 4.55
Absorbance at PSS, full: 0.042
Absorbance at PSS, +UV: 0.008
λ max: 640
SMILES: c1ccc(-c2cc(-c3nc(-c4ccccc4)sc3-c3cc(-c4ccccc4)sc3-c3ccccc3)c(-c3ccccc3)s2)cc1 [S055, 4,5-bis(2,5-diphenylthiophen-3-yl)-2-phenylthiazole]
